Patent publication US20250262206A1, “USE OF TACHYKININ RECEPTOR 3 INHIBITÓR” (WUHAN UNIVERSITY, priority 2021, published 2025)
Read-outs that look alike come from different tables or passages of the source.

How the values were obtained:
C57BL/6J-APCMin/+ mice = test: Kidney damage caused by intestinal adenoma in C57BL/6J-APCMin/+ mice; type: in vivo, mouse; conditions: 10 mg/kg/day intraperitoneal, 9 days
Experimental: C57BL/6J-APCMin/+ mice are a mature mammalian intestinal adenoma model and are commonly used to study host consumption caused by tumors.
Methods: Male mice of C57BL/6J in the control group and C57BL/6J-APCMin/+ in the experimental group (7 mice in each group) were fed to 16 weeks of age under normal feeding conditions. When the mice in the experimental group began to lose weight, they were injected intraperitoneally with Fezolinetant (0, 10 mg/kg/day) for 9 consecutive days, and the body weight and urine output were measured, and the kidneys were stained to observe the tubular morphology.

[1] = system: Yki activated Drosophila (intestinal tumors); test: Drosophila ascites caused by yki intestinal tumors; type: in vivo; conditions: 100 μM in food, yki intestinal tumor Drosophila, 6 days / 8 days
Text: Overexpression of the activated proto-oncogene yki in Drosophila intestinal stem cells can lead to malignant proliferation of intestinal stem cells, and then the formation of tumors. The formation of tumors seriously damages the secretory function of Drosophila Malpighian tubules, leading to the inability of circulating water in the Drosophila hemolymph to be drained out of the body, and the emergence of a severe ascites phenotype. Methods: Activated yki tumors (genotypes esg-Gal4, UAS-GFP, tub-Gal80TS/+; UAS-yki3SA/+) were induced in the Drosophila intestine by initiating gene expression at 29° C. Drosophilas were fed with food supplemented with DMSO, Fezolinetant (10 μM, 100 μM), and Pavinetant (10 μM, 100 μM), […], and compared with the control group (esg-Gal4, UAS-GFP, tub-Gal80TS/+), to observe phenotypes, detect intestinal tumor growth and systemic glycolipid changes, and count ascites ratios.

[2] = system: hot flashes in postmenopausal women; conditions: Phase 2 clinical trials; cited from earlier work
cytochrome P450-3A4 = cytochrome P450-3A4 (Homo sapiens, UniProt P08684); conditions: cited from earlier work
[3] = system: MFC tumor mice (C57BL/6J); test: Ascites and kidney damage caused by MFC forestomach cancer cells in mice; type: in vivo, mouse; conditions: 50 mg/kg/day intraperitoneal, 5 days
Experimental: MFC tumor (Mouse forestomach carcinoma), a common tumor that may cause ascites, colonizes the peritoneal cavity of mice. With their growth, the tumors may cause severe ascites accumulation and renal tubular damage in mice. Methods: C57BL/6J male mice, 4-6 weeks old. C57BL/6J mice in experimental group (6 mice in each group) were intraperitoneally injected with 1.5×10^7 MFC tumor cells, and 24 hours later, intraperitoneally injected with the inhibitor Pavinetant (0, 10, 50 mg/kg/day), and after 5 days of continuous administration, they were compared with the control group C57BL/6 (6 mice in each group). The body weight, ascites, and urine output were detected, and the kidneys were stained to observe the tubular morphology.

[4] = system: polycystic ovary syndrome; conditions: Phase 2 clinical trials; cited from earlier work

cytochrome P450-3A4, sequence (P08684 whole entry): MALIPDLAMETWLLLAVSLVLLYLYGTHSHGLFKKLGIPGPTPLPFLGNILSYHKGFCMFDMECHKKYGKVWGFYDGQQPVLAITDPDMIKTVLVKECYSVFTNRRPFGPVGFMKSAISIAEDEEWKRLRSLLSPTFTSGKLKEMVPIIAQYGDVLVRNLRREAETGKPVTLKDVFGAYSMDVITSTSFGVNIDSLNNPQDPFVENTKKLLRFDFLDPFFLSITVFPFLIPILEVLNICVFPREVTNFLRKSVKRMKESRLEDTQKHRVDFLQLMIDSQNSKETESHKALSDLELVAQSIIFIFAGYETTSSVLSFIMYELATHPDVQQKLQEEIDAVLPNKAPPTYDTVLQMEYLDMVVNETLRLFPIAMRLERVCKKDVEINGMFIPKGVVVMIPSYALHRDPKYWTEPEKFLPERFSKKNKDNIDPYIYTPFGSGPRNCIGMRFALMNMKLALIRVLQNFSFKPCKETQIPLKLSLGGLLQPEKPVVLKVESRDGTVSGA

| Structure (SMILES) | renal tubular damage (HE staining, tubular dilatation) (C57BL/6J-APCMin/+ mice) | urine output (C57BL/6J-APCMin/+ mice) | ascites in Drosophila [1] | blood glucose in Drosophila [1] | effect on hot flashes [2] | IC50 (cytochrome P450-3A4; midazolam, read-out: in vitro inhibitory IC50, cytochrome P450-3A4 enzyme activity, midazolam testing) | IC50 (cytochrome P450-3A4; testosterone, read-out: in vitro inhibitory IC50, cytochrome P450-3A4 enzyme activity, testosterone testing) | generation of ascites [3] | renal tubular lesions (renal tubular dilation) [3] | effect on polycystic ovary syndrome [4] |
| --- | --- | --- | --- | --- | --- | --- | --- | --- | --- | --- |
| Cc1nsc(-c2nnc3n2CCN(C(=O)c2ccc(F)cc2)[C@@H]3C)n1 [Fezolinetant] | significantly restored | significantly restored | significantly reduce | normalize | significant improvement effect | – | – | – | – | – |
| CC[C@H](NC(=O)c1c(NS(C)(=O)=O)c(-c2ccccc2)nc2ccccc12)c1ccccc1 [Pavinetant] | – | – | significantly reduce | normalize | significantly improves | 7.1 µM | 19.8 µM | significantly inhibit | alleviate | significantly improves |
